# Test results taken from patent US5254558A, “Substituted 1,3-diazines as leukocyte elastase inhibitors” (Imperial Chemical Industries PLC, priority 1991, dated 1993).
# pKi: −log10 of the molar value.
# Experiments:
# [1] = tested on: HLE; test: in vivo tests (Acute Lung Injury Model, Acute Hemorrhagic Assay); conditions: basis for compounds of particular interest
# [2] = biological target: T1, human leukocyte elastase (HLE) (Homo sapiens, UniProt P08246); test: Inhibition measurements: Ki against HLE on substrate methoxy-succinyl-alanyl-alanyl-prolyl-valine-p-nitroanilide; assay type: biochemical; conditions: read-out: Ki, dissociation constant of the complex of inhibitor with HLE
# T1 sequence (P08246 30-247 limits assumed): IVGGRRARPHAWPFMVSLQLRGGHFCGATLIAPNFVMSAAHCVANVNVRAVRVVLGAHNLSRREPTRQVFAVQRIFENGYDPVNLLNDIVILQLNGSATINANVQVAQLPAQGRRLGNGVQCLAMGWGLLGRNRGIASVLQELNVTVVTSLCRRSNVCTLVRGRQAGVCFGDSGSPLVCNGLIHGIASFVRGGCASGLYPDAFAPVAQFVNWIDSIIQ
# Protocol: The potency of a Compound to act as an inhibitor of human leukocyte elastase (HLE) on the low molecular weight peptide substrate methoxy-succinyl-alanyl-alanyl-prolyl-valine-p-nitroanilide is determined as described in U.S. Pat. No. 4,910,190. The potency of an inhibitor is evaluated by obtaining a kinetic determination of the dissociation constant, Ki, of the complex formed from the interaction of the inhibitor with HLE. If a Compound is found to be a "slow-binding" inhibitor of HLE, special methods of analysis to accurately determine Ki values for the inhibition of HLE are carried out as described in U.S. Pat. No. 4,910,190. In general, the Ki values for Compounds of the invention which were tested are generally on the order of 10^-7 M or much less.
# [3] = tested on: human neutrophil elastase (HNE); test: Acute Hemorrhagic Assay: lung hemorrhage after intratracheal HNE in hamsters; assay type: in vivo, hamster; conditions: 2.5 mg/kg by mouth, male Syrian hamsters
# Protocol: This assay relies on monitoring only the amount of hemorrhage in the lung following intratracheal administration of human neutrophil elastase (HNE). Hemorrhage is quantified by disrupting erythrocytes recovered in lung lavage fluid and comparing that to dilutions of whole hamster blood. The screening protocol, similar to that described in Fletcher et al., American Review of Respiratory Disease (1990), 141, 672-677, is as follows. […] The compounds are then dosed by mouth to male Syrian hamsters at a fixed time, such as 30 or 90 min, prior to intratracheal administration of 50 μg/animal of HNE in 300 μL phosphate buffered saline (PBS) pH 7.4. Four hours enzyme administration, the animals are killed with an overdose of pentobarbital sodium, the thorax opened and the lungs and trachea removed. […] The recovered lavages are pooled, the volumes (about 5 mL) are recorded and the lavages stored at 4° C. until assayed. […] The optical densities (OD) of the disrupted lavages and blood samples are determined at 405 nm. The (μL blood equivalents)/(mL lavage) are determined by comparing the OD of the test samples with the OD of the standard curve prepared from whole hamster blood. The total μL equivalents of blood recovered is determined by multiplying recovered lavage volume by the (μL blood equivalents)/(mL lavage) for each sample. […]
structure (smiles),measurement,setting,value
"CC(C)C(NC(=O)Cn1c(-c2cccs2)ncc(N)c1=O)C(=O)C(F)(F)F (centres unmarked) [Example 12, 2-[5-Amino-6-oxo-2-(2-thienyl)-1,6-dihydro-1-pyrimidinyl]-N-(3,3,3-trifluoro-1-isopropyl-2-oxopropyl)acetamide]",activity in in vivo tests,[1],activity in in vivo tests
CC(C)OC(=O)Nc1cnc(-c2cccs2)n(CC(=O)NC(C(=O)C(F)(F)F)C(C)C)c1=O (centres unmarked) [Example 51],pKi,[2],7.57
same,inhibition of hemorrhage,[3]; 30 min prior to HNE,statistically significant inhibition of hemorrhage
same,inhibition of hemorrhage,[3]; 90 min prior to HNE,statistically significant inhibition of hemorrhage
same,activity in in vivo tests,[1],activity in in vivo tests
CCNc1cnc(-c2cccs2)n(CC(=O)NC(C(=O)C(F)(F)F)C(C)C)c1=O (centres unmarked) [Example 82],activity in in vivo tests,[1],activity in in vivo tests
CSC(=O)Nc1cnc(-c2ccccc2)n(CC(=O)NC(C(=O)C(F)(F)F)C(C)C)c1=O (centres unmarked) [Example 100],activity in in vivo tests,[1],activity in in vivo tests
CSC(=O)Nc1cnc(-c2ccc(F)cc2)n(CC(=O)NC(C(=O)C(F)(F)F)C(C)C)c1=O (centres unmarked) [Example 102],activity in in vivo tests,[1],activity in in vivo tests
CC(C)C(NC(=O)Cn1c(-c2cccs2)ncc(NC(=O)OCC(F)(F)F)c1=O)C(=O)C(F)(F)F (centres unmarked) [Example 106],activity in in vivo tests,[1],activity in in vivo tests
CC(C)C(NC(=O)Cn1c(-c2cccs2)ncc(NC=O)c1=O)C(=O)C(F)(F)F (centres unmarked) [Example 157],activity in in vivo tests,[1],activity in in vivo tests
CC(C)C(NC(=O)Cn1c(-c2ccccc2)ncc(NC=O)c1=O)C(=O)C(F)(F)F (centres unmarked) [Example 159],activity in in vivo tests,[1],activity in in vivo tests
